Experimental data taken from patent US12691109B2, “Bifunctional aggregation-induced emission luminogen for monitoring and killing of multidrug-resistant bacteria” (The Hong Kong University of Science and Technology, priority 2018, dated 2026).

Columns and labels:
Assay in all cases: Antibacterial activity, MIC
Assay type in all cases: cell-based
[1] = tested on: MDR S. aureus; settings: clinical MDR isolate
[2] = tested on: K. pneumoniae; settings: laboratory-sensitive strain
[3] = tested on: MDR S. epidermidis; settings: clinical MDR isolate
[4] = tested on: S. aureus; settings: laboratory-sensitive strain
[5] = tested on: S. epidermidis; settings: laboratory-sensitive strain
[6] = tested on: E. coli; settings: laboratory-sensitive strain
[7] = tested on: MDR K. pneumoniae; settings: clinical MDR isolate
[8] = tested on: MDR E. coli; settings: clinical MDR isolate

Substance	MIC, MDR S. aureus [1] [µg/mL]	MIC, K. pneumoniae [2] [µg/mL]	MIC, MDR S. epidermidis [3] [µg/mL]	MIC, S. aureus [4] [µg/mL]	MIC, S. epidermidis [5] [µg/mL]	MIC, E.coli [6] [µg/mL]	MIC, MDR K. pneumoniae [7] [µg/mL]	MIC, MDR K. pneumoniae ([7]; listed as polymyxin) [µg/mL]	MIC, MDR E.coli [8] [µg/mL]	MIC, MDR E.coli ([8]; listed as polymyxin) [µg/mL]
Polymyxin	>128	<2	>128	>128	64	16	64	> 64	32	> 32
Penicilin	64	32	>32	<2	<2	<2	>128		>128	
Gentamicin	>128	<2	<2	<2	<2	<2	>128		>128	
